The source of these data is US8841321B2, “Quinoline derivatives as antibacterial agents” (Janssen Pharmaceutica NV, priority 2005, dated 2014).

Common to all, as to test: Microtitre plate assay, IC90 determination
Holding throughout (format): cell-based

For assay [1], the system named is PAE 27853 (Pseudomonas aeruginosa (ATCC27853)). The following applies: for IC90 (μg/ml) PAE 27853: Pseudomonas aeruginosa (ATCC27853).
Assay [2] deals with EFA 29212 (Enterococcus faecalis (ATCC29212)). The settings on record: for IC90 (μg/ml) EFA 29212: Enterococcus faecalis (ATCC29212); for IC90: Enterococcus faecalis, ATCC29212, Enterococcus faecalis (ATCC29212), read-out: IC90 (μg/ml) EFA 29212.
The subject of assay [3] is STA 29213 (Staphylococcus aureus (ATCC29213)). The settings on record: for IC90 (μg/ml) STA 29213: Staphylococcus aureus (ATCC29213); for IC90: Staphylococcus aureus, ATCC29213, Staphylococcus aureus (ATCC29213), read-out: IC90 (μg/ml) STA 29213. In short, it runs like this: (§1)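 Growth-inhibition endpoint: resazurin added 3 h after inoculation, plates incubated overnight, fluorescence at 530/590 nm after 24 h at 37 °C. Inocula of roughly 10–60 CFU per well in Mueller-Hinton medium; compounds titrated five-fold. IC90 reported as μg/ml.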

Assay [4] deals with SPN 6305 (Streptococcus pneumoniae (ATCC6305)). The settings on record: for IC90 (μg/ml) SPN 6305: Streptococcus pneumoniae (ATCC6305). The essentials: as §1
In assay [5] the test system is SPY 8668 (Streptococcus pyogens (ATCC8668)). The settings on record: for IC90 (μg/ml) SPY 8668: Streptococcus pyogens (ATCC8668).
Assay [6] relates to STA RMETH (methicilline resistant Staphylococcus aureus (MRSA), a clinical isolate from the University of Antwerp). The settings on record: for IC90: Staphylococcus aureus, MRSA, read-out: IC90 (μg/ml) STA RMETH.
Assay [7] has as its system BSU 43639 (Bacillus subtilis (ATCC43639)). The settings on record: Bacillus subtilis, ATCC43639, Bacillus subtilis (ATCC43639); read-out: IC90 (μg/ml) BSU 43639.
Assay [8] concerns LMO 49594 (Listeria monocytogenes (ATCC49594)). The following applies: Listeria monocytogenes, ATCC49594, Listeria monocytogenes (ATCC49594); read-out: IC90 (μg/ml) LMO 49594.

≈ marks a conversion by molar mass, not a printed value.

As for `COc1nc2ccc(Br)cc2cc1C(c1ccccc1)C(O)(CCCCN(C)C)c1ccc2cc(Br)ccc2c1` (centres unmarked) [Compound 8], in assay [1], the “IC90 (μg/ml) PAE 27853” value worked out at 5.3 µg/mL (≈ 8 µM). Moreover, the “IC90 (μg/ml) EFA 29212” value in assay [2] worked out at 2.1 µg/mL (≈ 3.17 µM). The “IC90 (μg/ml) STA 29213” value in assay [3] is 2.4 µg/mL (≈ 3.62 µM). Moreover, the “IC90 (μg/ml) SPN 6305” value in assay [4] stood at 10.5 µg/mL (≈ 15.8 µM). For the same compound, in assay [5], the “IC90 (μg/ml) SPY 8668” value is 10.5 µg/mL (≈ 15.8 µM). The “IC90 (μg/ml) STA RMETH” value in assay [6] stood at 2.6 µg/mL (≈ 3.92 µM).

Turning to `COc1nc2cccc(Br)c2cc1C(c1ccccc1)C(O)(CCCCN(C)C)c1ccc2ccccc2c1` (centres unmarked) [Compound 29], the IC90 amounted to 20.7 µg/mL (≈ 35.5 µM) in assay [1] (Pseudomonas aeruginosa, ATCC27853, Pseudomonas aeruginosa (ATCC27853), read-out: IC90 (μg/ml) PAE 27853); 46.3 µg/mL (≈ 79.3 µM) in assay [2]; 1.9 µg/mL (≈ 3.26 µM) in assay [3]; 20.7 µg/mL (≈ 35.5 µM) in assay [5] (Streptococcus, ATCC8668, Streptococcus pyogens (ATCC8668), read-out: IC90 (μg/ml) SPY 8668). In addition, the “IC90 (μg/ml) SPN 6305” value in assay [4] worked out at 9.3 µg/mL (≈ 15.9 µM). Further, in assay [6], the “IC90 (μg/ml) STA RMETH” value was determined as 2.3 µg/mL (≈ 3.94 µM).

`COc1nc2cc(Br)ccc2cc1C(c1ccccc1)C(O)(CCCCN(C)C)c1ccc2ccccc2c1` (centres unmarked) [Compound 32]: the “IC90 (μg/ml) PAE 27853” value in assay [1] turned out to be 1.9 µg/mL (≈ 3.26 µM). For the same compound, in assay [2], the “IC90 (μg/ml) EFA 29212” value came out at 1.9 µg/mL (≈ 3.26 µM). Also, the “IC90 (μg/ml) STA 29213” value in assay [3] stood at 1.9 µg/mL (≈ 3.26 µM). Moreover, in assay [4], the “IC90 (μg/ml) SPN 6305” value is 1.9 µg/mL (≈ 3.26 µM). The “IC90 (μg/ml) SPY 8668” value in assay [5] was found to be 1.9 µg/mL (≈ 3.26 µM). Also, the IC90 in assay [6] came to 11.6 µg/mL (≈ 19.9 µM).

As to `COc1nc2cc(Br)ccc2cc1C(c1ccccc1)C(O)(CCCCN(C)C)c1ccc2ccccc2c1` (centres unmarked) [Compound 33], the “IC90 (μg/ml) PAE 27853” value in assay [1] came to 52.0 µg/mL (≈ 89.1 µM). Besides, the “IC90 (μg/ml) EFA 29212” value in assay [2] amounted to 46.3 µg/mL (≈ 79.3 µM). The “IC90 (μg/ml) STA 29213” value in assay [3] is 4.1 µg/mL (≈ 7.03 µM). Moreover, the “IC90 (μg/ml) SPN 6305” value in assay [4] came to 9.3 µg/mL (≈ 15.9 µM). Besides, the “IC90 (μg/ml) SPY 8668” value in assay [5] was 46.3 µg/mL (≈ 79.3 µM). Moreover, the “IC90 (μg/ml) STA RMETH” value in assay [6] amounted to 5.8 µg/mL (≈ 9.94 µM).

For the compound `COc1ccc2cc(C(O)(CCCCN(C)C)C(c3ccccc3)c3cc4ccccc4nc3OC)ccc2c1` (centres unmarked) [Compound 35], the “IC90 (μg/ml) PAE 27853” value in assay [1] is 8.5 µg/mL (≈ 15.9 µM). Besides, the IC90 in assay [2] was found to be 8.5 µg/mL (≈ 15.9 µM); in assay [3], 2.1 µg/mL (≈ 3.93 µM); in assay [4] (Streptococcus pneumoniae, ATCC6305, Streptococcus pneumoniae (ATCC6305), read-out: IC90 (μg/ml) SPN 6305) it was 1.7 µg/mL (≈ 3.18 µM); in assay [6], 10.7 µg/mL (≈ 20 µM). For the same compound, the “IC90 (μg/ml) SPY 8668” value in assay [5] worked out at 3.8 µg/mL (≈ 7.11 µM).

Take `COc1nc2ccc(-c3ccccc3)cc2cc1C(c1ccccc1)C(O)(CCCCN(C)C)c1ccc2ccccc2c1` (centres unmarked) [Compound 40]: in assay [1], the “IC90 (μg/ml) PAE 27853” value came out at 1.8 µg/mL (≈ 3.1 µM). The “IC90 (μg/ml) EFA 29212” value in assay [2] came to 1.8 µg/mL (≈ 3.1 µM). Further, the figures for the IC90 in assay [3] and in assay [6] were 7.3 µg/mL (≈ 12.6 µM) and 5.2 µg/mL (≈ 8.95 µM), respectively. The “IC90 (μg/ml) SPN 6305” value in assay [4] is 1.8 µg/mL (≈ 3.1 µM). Besides, the “IC90 (μg/ml) SPY 8668” value in assay [5] is 1.8 µg/mL (≈ 3.1 µM).

Regarding `COc1nc2ccc(-c3ccccc3)cc2cc1C(c1ccccc1)C(O)(CCCCN(C)C)c1ccc2ccccc2c1` (centres unmarked) [Compound 41], the “IC90 (μg/ml) PAE 27853” value in assay [1] came out at 36.6 µg/mL (≈ 63 µM). Further, the IC90 in assay [7] and in assay [8] was 9.2 µg/mL (≈ 15.8 µM) each time. For the same compound, in assay [2], the “IC90 (μg/ml) EFA 29212” value stood at 9.2 µg/mL (≈ 15.8 µM). The “IC90 (μg/ml) STA 29213” value in assay [3] turned out to be 9.2 µg/mL (≈ 15.8 µM). The “IC90 (μg/ml) SPN 6305” value in assay [4] came out at 9.2 µg/mL (≈ 15.8 µM). In addition, in assay [5], the “IC90 (μg/ml) SPY 8668” value is 9.2 µg/mL (≈ 15.8 µM). For the same compound, the “IC90 (μg/ml) STA RMETH” value in assay [6] was 9.2 µg/mL (≈ 15.8 µM).

Take `CNCCCCC(O)(CCc1ccccc1)C(c1ccccc1)c1cc2cc(Br)ccc2nc1OC` (centres unmarked) [Compound 70]: in assay [1], the “IC90 (μg/ml) PAE 27853” value was found to be 1.73 µg/mL (≈ 3.16 µM). The “IC90 (μg/ml) EFA 29212” value in assay [2] worked out at 2.18 µg/mL (≈ 3.98 µM). The IC90 in assay [3] is 1.73 µg/mL (≈ 3.16 µM); in assay [6], 10.9 µg/mL (≈ 19.9 µM). Besides, the “IC90 (μg/ml) SPN 6305” value in assay [4] came out at 0.35 µg/mL (≈ 0.639 µM). Further, the “IC90 (μg/ml) SPY 8668” value in assay [5] was determined as 1.73 µg/mL (≈ 3.16 µM).

As for `CNCCCCC(O)(CCc1ccccc1)C(c1ccccc1)c1cc2cc(Br)ccc2nc1OC` (centres unmarked) [Compound 71], in assay [1], the “IC90 (μg/ml) PAE 27853” value is 8.68 µg/mL (≈ 15.9 µM). Also, the “IC90 (μg/ml) EFA 29212” value in assay [2] stood at 8.68 µg/mL (≈ 15.9 µM). The “IC90 (μg/ml) STA 29213” value in assay [3] was 1.73 µg/mL (≈ 3.16 µM). The “IC90 (μg/ml) SPN 6305” value in assay [4] was found to be 1.73 µg/mL (≈ 3.16 µM). In assay [5], the “IC90 (μg/ml) SPY 8668” value was 3.88 µg/mL (≈ 7.09 µM). Moreover, in assay [6], the “IC90 (μg/ml) STA RMETH” value was 10.92 µg/mL (≈ 19.9 µM).
